In the NIST ThermoML archive (doi:10.1016/j.jct.2004.11.016):

Legend:
[1] = Liquid; for mass density: 101.3 kPa; for viscosity: 101 kPa
[2] = xn = mol fraction of the nth substance listed; details: Liquid, x2 = 0; for viscosity: 101 kPa; for mass density: 101.3 kPa

CN(C)CCO [2-(N,N-dimethylamino)ethanol]
[1]
Details | mass density [kg/m3] | viscosity [mPa·s]
293.15 K | 887.816 | –
298.15 K | 883.578 | –
303.15 K | 879.315 | –
308.15 K | 875.017 | –
313.15 K | 870.686 | 2.238
318.15 K | 866.316 | –
323.15 K | 861.902 | 1.756
328.15 K | 857.46 | –
333.15 K | 852.965 | 1.413
338.15 K | 848.423 | –
343.15 K | 843.844 | 1.156
348.15 K | 839.205 | –
353.15 K | 834.521 | 0.963
358.15 K | 829.779 | –
363.15 K | 824.969 | –

O [water]
[1]
Details | mass density [kg/m3] | viscosity [mPa·s]
313.15 K | – | 0.651
323.15 K | 988.03 | 0.544
328.15 K | 985.688 | –
333.15 K | 983.191 | 0.463
338.15 K | 980.546 | –
343.15 K | 977.759 | 0.396
348.15 K | 974.838 | –
353.15 K | 971.785 | 0.348
358.15 K | 968.606 | –
363.15 K | 965.305 | –

O [water] + CN(C)CCO
[2]
Details | mass density [kg/m3] | viscosity [mPa·s]
313.15 K | – | 0.651
323.15 K | 988.03 | 0.544
328.15 K | 985.688 | –
333.15 K | 983.191 | 0.463
338.15 K | 980.546 | –
343.15 K | 977.759 | 0.396
348.15 K | 974.838 | –
353.15 K | 971.785 | 0.348
358.15 K | 968.606 | –
363.15 K | 965.305 | –
